Here are results for 1 compound from US20200390755A1, “COMPOUND FOR TREATING NERVOUS SYSTEM DISEASES AND USE THEREOF” (SHAANXI MICOT TECHNOLOGY CO., LTD., priority 2018, published 2020).

In assay [1] the test system is WT mice. Put plainly: High-altitude balance beam (5 mm) experiment 2, WT mice. Particulars: 5 mg/kg/d intragastric. The assay is classed as in vivo, mouse. The protocol: 7-week-old N171-82Q HD male mice were paired with female B6C3F1/J hybrid mice to obtain newborn mice. From 21 days of age, male mice were housed in separate cages. 0.5 cm of mouse tail tissue was removed to extract DNA to determine the genotype of the mouse, such that N171-82Q HD mice and WT mice needed for the experiment were obtained. The mice were randomly divided into WT Vehicle group (normal mice), WT test compound group (administration group of normal mice, 5 mg/kg/d, n=10), HD Vehicle group (blank group of HD mice, n=15), HD test compound group (administration groups 1-5 of HD mice, 5 mg/kg/d, n=10). The test compound was suspended in 1% CMC-Na solution and administered by intragastric administration until the end of the study. The weights of the mice were measured every week. Behavioral tests were performed at 12 weeks, 18 weeks, and 24 weeks of age to investigate motor function. At 20 weeks, 3 samples of tissue from each group were used for western blotting and immunohistochemistry. At 24 weeks, MRI scans were performed. At the end of the study, the effect of the test compound on the mortality of mice was evaluated. The software Sigmaplot 13.0 was used for statistical analysis of the data, and the data of each group was expressed as mean standard error (x±SEM). Behavioral test results were analyzed using two-way (genotype and processing factor) ANOVA and post-ho tests, the comparison and statistics of weight data were performed using two-way (genotype and age) ANOVA of repeated measures, and mortality was counted using Kaplan-Meier method. Other measurement data were analyzed by one-way ANOVA. P<0.05 was considered statistically significant. The motor function of mice was evaluated by the rotarod experiment and three types of balance beam experiments. […] If the time for crossing the beams was greater than 60 seconds, it was recorded as 60 seconds. a square balance beam with a length of 80 cm and a width of 5 mm was place at a height of about 50 cm from the ground. […]

Assay [2] relates to WT mice. Briefly: DARPP32 protein level in striatum by Western blotting, WT mice. The assay is classed as in vivo, mouse. Particulars: 5 mg/kg/d until 25 weeks, WT Vehicle = 100, n = 3. The protocol: 7-week-old N171-82Q HD male mice were paired with female B6C3F1/J hybrid mice to obtain newborn mice. From 21 days of age, male mice were housed in separate cages. 0.5 cm of mouse tail tissue was removed to extract DNA to determine the genotype of the mouse, such that N171-82Q HD mice and WT mice needed for the experiment were obtained. The mice were randomly divided into WT Vehicle group (normal mice), WT test compound group (administration group of normal mice, 5 mg/kg/d, n=10), HD Vehicle group (blank group of HD mice, n=15), HD test compound group (administration groups 1-5 of HD mice, 5 mg/kg/d, n=10). The test compound was suspended in 1% CMC-Na solution and administered by intragastric administration until the end of the study. The weights of the mice were measured every week. Behavioral tests were performed at 12 weeks, 18 weeks, and 24 weeks of age to investigate motor function. At 20 weeks, 3 samples of tissue from each group were used for western blotting and immunohistochemistry. At 24 weeks, MRI scans were performed. At the end of the study, the effect of the test compound on the mortality of mice was evaluated. […] The total protein in the striatum tissue was extracted, and the protein level of DARPP 32 was detected by Western blotting experiment. […] The protein was extracted, and the protein level of DARPP 32 was detected by Western blotting.
For orientation: Immunoblotting shows a protein as a band on a membrane.

Take `O=c1cc(-c2ccc(N3CCCCC3)cc2)oc2c(O)c(O)ccc12` [Example 1, 7,8-dihydroxy-2-(4-(piperidin-1-yl)phenyl)-4H-chromen-4-one]: the “Time for crossing the beams, high-altitude balance beam (5 mm)” value in the assay on WT mice [1] (12 w) is reported as 11.64 ± 4.20 s; with WT mice [1] (18 w) it was 9.91 ± 3.05 s; in the assay with WT mice [1] (24 w), 14.18 ± 7.07 s. In the assay with WT mice [2], the “Relative intensity of DARPP32 protein” value is 96.066 ± 5.805.
